Assay results: ChEMBL document CHEMBL1201862, “PubChem BioAssay data set” (2004)
Calls of active or inactive are those of the source.

Tests used:
Paired box protein Pax-8 = Paired box protein Pax-8 (Homo sapiens, UniProt Q06710); test: inhibitors of PAX8-driven TPO luciferase reporter, dose response, RMG-I cells, cherry-pick (AID 687027); format: functional, cell-based;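 also: luciferase reporter driven by Pax8 target thyroperoxidase promoter measured by SteadyGlo luminescence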
[1] = NIH:OVCAR-3 ovarian cancer cell cytotoxicity, dose response, PAX8 inhibitor project, plate reader, dry powder samples (AID 743044); format: functional, cell-based
[2] = cytotoxicity in OVCAR8 ovarian cancer cells, dose response, PAX8 project, cell-based, plate reader, dry powder samples (AID 743197); format: functional; details: OVCAR-8
[3] = target: T1, Corticotropin-releasing factor receptor 2/Corticotropin-releasing factor-binding protein (Homo sapiens, UniProt P24387+Q13324); test: Dose Response confirmation of uHTS hits for small molecule antagonists of the CRF-binding protein and CRF-R2 receptor complex.; format: functional; details: read-out: IC50_Mean
T1 sequence (Q13324 whole entry): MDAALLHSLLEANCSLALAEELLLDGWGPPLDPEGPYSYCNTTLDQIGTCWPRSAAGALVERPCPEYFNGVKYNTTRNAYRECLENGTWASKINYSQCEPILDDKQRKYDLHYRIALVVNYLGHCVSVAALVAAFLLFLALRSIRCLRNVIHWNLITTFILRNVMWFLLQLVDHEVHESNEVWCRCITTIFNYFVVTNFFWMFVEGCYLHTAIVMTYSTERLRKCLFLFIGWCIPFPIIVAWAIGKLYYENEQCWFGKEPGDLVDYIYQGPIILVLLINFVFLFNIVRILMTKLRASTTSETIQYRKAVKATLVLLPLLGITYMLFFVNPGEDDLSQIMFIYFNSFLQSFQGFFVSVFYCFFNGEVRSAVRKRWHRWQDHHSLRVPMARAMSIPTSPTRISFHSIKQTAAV
T1 sequence (P24387 whole entry): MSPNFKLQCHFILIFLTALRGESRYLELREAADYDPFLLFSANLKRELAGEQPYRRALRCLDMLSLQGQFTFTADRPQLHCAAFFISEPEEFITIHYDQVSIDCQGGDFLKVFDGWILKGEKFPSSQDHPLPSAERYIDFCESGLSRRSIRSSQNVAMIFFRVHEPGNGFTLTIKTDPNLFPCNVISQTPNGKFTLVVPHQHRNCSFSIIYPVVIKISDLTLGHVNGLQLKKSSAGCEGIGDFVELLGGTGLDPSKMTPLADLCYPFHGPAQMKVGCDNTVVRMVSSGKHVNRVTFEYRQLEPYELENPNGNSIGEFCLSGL

[4] = target: T1, Corticotropin-releasing factor receptor 2/Corticotropin-releasing factor-binding protein; test: activators of CRF receptor 2 with binding protein – uHTS hits, confirmation (AID 602473); format: functional; details: read-out: EC50_Mean
[5] = CRF-BP/CRF-R2 complex antagonists, dose response, cell-based, uHTS hits, 384-well (AID 651639); format: functional, Homo sapiens; details: read-out: IC50_Mean
Beta-galactosidase = Beta-galactosidase (Escherichia coli, UniProt Q8VNN2); test: Dose response counterscreen for EBI2 assay utilizing the enzyme, b-galactosidase.; format: functional
[6] = cytotoxicity in HPDE-C7 cells, cell-based, fluorescence, HTS (AID 430); format: functional; details: Homo sapiens
Large T antigen = Large T antigen (Simian virus 40, UniProt P03070); format: functional, Betapolyomavirus macacae;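 also: Confirmatory-stage PubChem screen for compounds that inhibit SV40 T antigen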
[7] = cytotoxicity in KRAS-transformed pancreatic duct cells, primary screen, cell-based, fluorescence, HTS (AID 431); format: functional; details: Homo sapiens;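 also: cell line used: HPDE-C7K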
[8] = target: FAD-linked sulfhydryl oxidase ALR (Homo sapiens, UniProt P55789); test: inhibitors of human ALR sulfhydryl oxidase, dose response, biochemical, H2O2 detection, luminescence, cherry-pick (AID 493248)
Protein Tat = target: T2, Protein Tat (Human immunodeficiency virus type 1 group M subtype B (isolate HXB2)(HIV-1), UniProt P04608); format: functional;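 also: tat binding to TAR RNA read out by fluorescence polarization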
T2 sequence (P04608 whole entry): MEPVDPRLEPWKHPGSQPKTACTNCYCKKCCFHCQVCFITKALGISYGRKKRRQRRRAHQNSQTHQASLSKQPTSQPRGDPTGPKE

[9] = inhibitors of Vif binding to APOBEC3G peptide, primary screen, biochemical, TR-FRET, GST-Vif 1-94, biotin-A3G peptide, dose response retest (AID 1117319); format: functional;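 also: TR-FRET signal of purified GST-Vif binding a biotinylated A3G peptide; inhibitors lower the FRET signal by blocking Vif and A3G binding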
[10] = target: Eukaryotic translation initiation factor 4E (Mus musculus, UniProt P63073); test: eIF4E–eIF4G protein interaction inhibitors, dose response, biochemical, TR-FRET (AID 855); format: functional;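 also: potency for disrupting eIF4E binding to eIF4GI seen as loss of FRET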
[11] = target: T3, Mannose-6-phosphate isomerase (Homo sapiens, UniProt P34949); test: human PMI inhibitors, high substrate, primary screen, biochemical, fluorescence intensity, high mannose 6-phosphate (AID 1220)
T3 sequence (P34949 whole entry): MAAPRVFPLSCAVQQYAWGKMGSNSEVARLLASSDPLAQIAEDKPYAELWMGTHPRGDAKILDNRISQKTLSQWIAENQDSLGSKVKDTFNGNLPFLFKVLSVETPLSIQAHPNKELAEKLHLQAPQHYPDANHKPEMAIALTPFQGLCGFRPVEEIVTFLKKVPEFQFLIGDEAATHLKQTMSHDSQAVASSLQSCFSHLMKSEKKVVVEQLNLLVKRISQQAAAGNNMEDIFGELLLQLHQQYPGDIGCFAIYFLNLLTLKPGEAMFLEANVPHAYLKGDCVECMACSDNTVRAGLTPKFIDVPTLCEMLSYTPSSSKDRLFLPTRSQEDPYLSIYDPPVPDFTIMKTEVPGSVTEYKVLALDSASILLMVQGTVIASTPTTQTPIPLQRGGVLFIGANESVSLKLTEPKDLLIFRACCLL

[12] = target: T4, Endoribonuclease toxin MazF (Escherichia coli K-12, UniProt P0AE70); test: MazF toxin RNase activators, dose response, biochemical, fluorescence, single-stranded RNA substrate, uHTS hits (AID 588481); format: functional
T4 sequence (P0AE70 whole entry): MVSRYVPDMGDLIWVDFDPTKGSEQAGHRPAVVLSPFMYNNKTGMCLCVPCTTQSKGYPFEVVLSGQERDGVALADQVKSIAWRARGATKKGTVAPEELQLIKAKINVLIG

[13] = target: T4, Endoribonuclease toxin MazF; test: fluorescent RNA oligo signal without MazF, dose response, counter-screen for MazEF activator project, biochemical, fluorescence, single-stranded RNase substrate (AID 588502); format: functional
Kallikrein-7 = Kallikrein-7 (Homo sapiens, UniProt P49862); test: Fluorescence Intensity-based biochemical primary high throughput dose response assay to identify activators of kallikrein-7 (K7) zymogen.
[14] = inhibitors of HIV Env-driven cell fusion, dose response, cherry-pick (AID 652057); format: functional, cell-based
[15] = CEM21 lymphoblast cell cytotoxicity, dose response, cytotoxicity control for viral fusion inhibitor project, CellTiter-Glo luminescence, cherry-picked (AID 652042); format: functional, cell-based;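 also: potency for signal decrease meaning cytotoxicity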
[16] = ZM109 Env clade C HIV-1 fusion inhibitors, dose response, HeLa effector, CEM target cells, luciferase, cherry-pick (AID 652058); format: functional, cell-based
[17] = off-target signal loss in HeLa-CEM21 co-culture – HeLa F-luc CTL cells, cherry-picked, counter-screen for HIV-1 Env fusion inhibitor project, dose response (AID 652040); format: functional, cell-based;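 also: potency for signal decrease marking cytotoxic or nonspecific inhibition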
[18] = inhibitors of clade B AD8 Env fusion, dose response, cell-based, cherry-pick (AID 652062); format: functional;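 also: luciferase signal from cell-cell fusion driven by HIV-1 clade B AD8 Env; potency is for inhibitors of fusion seen as a drop in luminescence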
[19] = Luminescence Cell-Based Dose Response HTS to Identify Inhibitors of 5'UTR Stem-Loop Driven Prion Protein mRNA Translation in H4 Neuroglioblastoma Cells. [Related pubchem assays: 1827 (Project Summary), 1813 (Primary HTS)]; format: functional
[20] = microbe, parasite or virus in culture; format: functional; details: Mycobacterium tuberculosis
[21] = growth suppression of PTEN-null colon cells, dose response, cell-based, HCT116 PTEN knockout (AID 1047); format: functional;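 also: HCT116 colon tumor cells with PTEN knocked out; cells exposed to compound for 60 hours before readout; potency for loss of cell viability measured by luminescence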
[22] = growth suppression of beta-catenin-knockout colon cells, dose response, cell-based, HCT116, human colon tumor (AID 1045); format: functional;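 also: HCT116 colon tumor cells with beta catenin knocked out; cells exposed to compound for 60 hours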
[23] = Luminescence Cell-Based Dose Retest to Confirm Inhibitors of Cancer Stem Cells. [Related pubchem assays (depositor defined):AID2717, AID2721]; format: functional; details: Homo sapiens
[24] = Shn3 3'UTR reporter inhibitors, dose response, cell-based, Clone20 osteoblasts, firefly luciferase, cherry-picked (AID 624132); format: functional;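 also: firefly luciferase luminescence from reporter carrying the Shn3 3'UTR in osteoblasts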
[25] = HepG2 cell cytotoxicity, dose response, cytotoxicity control for Shn3 inhibitor project, CellTiter-Glo, cherry-picked (AID 624134); format: functional, cell-based
[26] = control 3'UTR Renilla luciferase suppression, dose response, counter-screen for Shn3 inhibitor project, cell-based, Clone20-Shn3RL, cherry-picked (AID 624133); format: functional
[27] = target: T5, Hepatocyte nuclear factor 4-alpha (Homo sapiens, UniProt P41235); format: functional, cell-based;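 also: biochemical luminescence-based dose-response counterscreen measuring inhibition of HNF4 dimerization, run alongside a screen for blockers of ABHD5–perilipin-5 interaction; split luciferase complementation of HNF4 fusion proteins in cell lysate measuring dimerization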
T5 sequence (P41235 whole entry): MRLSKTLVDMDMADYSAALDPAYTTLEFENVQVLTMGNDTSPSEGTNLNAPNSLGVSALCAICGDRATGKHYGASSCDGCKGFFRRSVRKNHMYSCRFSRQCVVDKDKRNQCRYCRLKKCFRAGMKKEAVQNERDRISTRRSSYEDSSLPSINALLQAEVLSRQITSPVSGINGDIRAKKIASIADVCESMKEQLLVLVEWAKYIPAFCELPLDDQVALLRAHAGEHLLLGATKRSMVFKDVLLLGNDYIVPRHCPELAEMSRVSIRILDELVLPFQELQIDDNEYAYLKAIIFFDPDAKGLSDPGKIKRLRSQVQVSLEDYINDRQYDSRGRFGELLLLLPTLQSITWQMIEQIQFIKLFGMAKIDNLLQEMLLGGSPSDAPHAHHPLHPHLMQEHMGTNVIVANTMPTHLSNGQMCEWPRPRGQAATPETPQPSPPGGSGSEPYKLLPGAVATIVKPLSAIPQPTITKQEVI

[28] = inhibitors of PGC1a acetylation in cells, dose response, cell-based, cherry-picked samples (AID 720514); format: functional;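 also: potency may reflect raised or lowered acetylation signal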

Chain of Kallikrein-7 (P49862 whole entry, the tested form may be a part): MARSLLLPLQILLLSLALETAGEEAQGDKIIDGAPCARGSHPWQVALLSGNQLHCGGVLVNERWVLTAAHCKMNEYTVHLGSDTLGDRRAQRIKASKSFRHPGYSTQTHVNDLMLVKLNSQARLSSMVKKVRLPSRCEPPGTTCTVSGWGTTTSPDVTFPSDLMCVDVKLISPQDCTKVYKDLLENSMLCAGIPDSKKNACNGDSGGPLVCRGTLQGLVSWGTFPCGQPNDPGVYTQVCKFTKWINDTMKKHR
Chain of Beta-galactosidase (Q8VNN2 whole entry): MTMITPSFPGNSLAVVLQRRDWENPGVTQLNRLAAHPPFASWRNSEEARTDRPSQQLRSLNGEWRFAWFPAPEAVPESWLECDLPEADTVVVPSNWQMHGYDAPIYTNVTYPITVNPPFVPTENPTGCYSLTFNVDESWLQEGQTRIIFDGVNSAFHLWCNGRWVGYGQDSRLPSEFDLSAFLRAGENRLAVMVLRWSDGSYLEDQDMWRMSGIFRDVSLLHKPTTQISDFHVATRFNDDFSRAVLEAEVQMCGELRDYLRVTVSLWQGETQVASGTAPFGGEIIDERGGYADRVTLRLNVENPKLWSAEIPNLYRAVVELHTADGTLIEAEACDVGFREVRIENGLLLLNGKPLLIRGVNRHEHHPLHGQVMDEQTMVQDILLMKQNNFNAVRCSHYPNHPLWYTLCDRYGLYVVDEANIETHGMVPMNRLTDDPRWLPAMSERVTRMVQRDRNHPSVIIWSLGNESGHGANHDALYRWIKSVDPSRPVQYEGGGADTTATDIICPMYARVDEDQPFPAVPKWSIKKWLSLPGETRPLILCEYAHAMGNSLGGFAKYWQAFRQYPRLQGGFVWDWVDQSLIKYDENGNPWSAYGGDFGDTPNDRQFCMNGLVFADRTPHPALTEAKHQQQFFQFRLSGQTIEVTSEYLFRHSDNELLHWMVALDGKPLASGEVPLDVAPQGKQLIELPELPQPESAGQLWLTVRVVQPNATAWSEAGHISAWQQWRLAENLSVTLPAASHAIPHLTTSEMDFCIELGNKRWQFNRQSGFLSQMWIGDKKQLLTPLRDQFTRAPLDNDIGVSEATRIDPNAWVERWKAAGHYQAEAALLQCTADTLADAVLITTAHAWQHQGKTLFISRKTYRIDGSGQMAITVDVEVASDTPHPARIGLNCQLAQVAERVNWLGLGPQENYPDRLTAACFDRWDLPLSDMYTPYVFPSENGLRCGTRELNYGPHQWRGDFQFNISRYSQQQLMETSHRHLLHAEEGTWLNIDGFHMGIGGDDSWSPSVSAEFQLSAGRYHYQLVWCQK
Chain of Paired box protein Pax-8 (Q06710 whole entry): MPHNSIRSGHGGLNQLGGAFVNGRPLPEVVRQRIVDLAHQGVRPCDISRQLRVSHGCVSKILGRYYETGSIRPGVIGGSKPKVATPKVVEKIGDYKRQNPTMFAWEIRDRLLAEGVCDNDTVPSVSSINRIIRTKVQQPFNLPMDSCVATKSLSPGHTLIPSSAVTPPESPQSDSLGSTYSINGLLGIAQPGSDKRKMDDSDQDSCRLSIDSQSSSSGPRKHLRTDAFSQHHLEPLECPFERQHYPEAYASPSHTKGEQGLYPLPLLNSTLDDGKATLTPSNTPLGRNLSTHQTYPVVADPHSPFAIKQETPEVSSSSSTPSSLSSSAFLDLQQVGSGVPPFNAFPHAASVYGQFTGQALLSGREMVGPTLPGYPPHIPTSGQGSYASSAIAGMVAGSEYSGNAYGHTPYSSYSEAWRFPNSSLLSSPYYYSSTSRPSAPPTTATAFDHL
Chain of Eukaryotic translation initiation factor 4E (P63073 whole entry): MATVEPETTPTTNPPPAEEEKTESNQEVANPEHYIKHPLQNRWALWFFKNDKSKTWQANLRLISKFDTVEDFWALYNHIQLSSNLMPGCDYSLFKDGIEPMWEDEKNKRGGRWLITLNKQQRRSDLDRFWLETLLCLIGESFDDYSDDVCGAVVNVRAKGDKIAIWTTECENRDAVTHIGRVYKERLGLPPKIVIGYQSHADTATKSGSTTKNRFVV
Chain of FAD-linked sulfhydryl oxidase ALR (P55789 whole entry): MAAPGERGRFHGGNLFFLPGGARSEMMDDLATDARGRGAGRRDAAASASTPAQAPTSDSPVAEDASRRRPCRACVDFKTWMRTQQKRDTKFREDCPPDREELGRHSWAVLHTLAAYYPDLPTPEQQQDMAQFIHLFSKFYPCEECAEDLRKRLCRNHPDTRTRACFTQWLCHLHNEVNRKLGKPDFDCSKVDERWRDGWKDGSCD
Chain of Large T antigen (P03070 whole entry): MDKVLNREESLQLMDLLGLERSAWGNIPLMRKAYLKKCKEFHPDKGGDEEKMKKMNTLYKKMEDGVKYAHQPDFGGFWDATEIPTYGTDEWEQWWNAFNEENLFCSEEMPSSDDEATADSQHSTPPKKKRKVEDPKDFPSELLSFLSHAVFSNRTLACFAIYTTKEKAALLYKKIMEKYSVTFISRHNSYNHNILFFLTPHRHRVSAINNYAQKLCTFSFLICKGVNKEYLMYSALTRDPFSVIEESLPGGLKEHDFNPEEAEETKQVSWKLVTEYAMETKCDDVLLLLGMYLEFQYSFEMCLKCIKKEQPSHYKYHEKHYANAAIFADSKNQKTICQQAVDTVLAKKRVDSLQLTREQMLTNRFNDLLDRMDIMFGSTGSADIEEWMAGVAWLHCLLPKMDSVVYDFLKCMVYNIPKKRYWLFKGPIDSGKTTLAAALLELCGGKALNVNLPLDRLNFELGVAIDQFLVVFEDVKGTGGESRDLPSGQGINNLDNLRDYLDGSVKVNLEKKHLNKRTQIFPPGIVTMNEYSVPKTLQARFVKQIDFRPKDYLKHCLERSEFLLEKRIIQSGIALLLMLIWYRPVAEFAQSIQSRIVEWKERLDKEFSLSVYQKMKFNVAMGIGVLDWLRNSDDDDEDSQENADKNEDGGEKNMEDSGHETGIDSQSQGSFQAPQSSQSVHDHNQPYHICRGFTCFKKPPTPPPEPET

C[C@@H]1CCCCO[C@H](CN(C)CC2CCCCC2)[C@H](C)CN([C@@H](C)CO)C(=O)c2cc(NC(=O)Nc3ccccc3)ccc2O1
AC50 (Paired box protein Pax-8): 10.9 µM (active)
AC50 [1]: 57 µM (active)
AC50 [2]: 61 µM (active)

Cc1cc([N+](=O)[O-])ccc1NCc1ccc2c(c1)OCCO2
IC50 [3]: 30.1 µM (active)
EC50 [4]: > 53 µM (inactive)
IC50 [5]: 19.9 µM (active)

CCOc1ccc(N(CC(=O)NCCOc2ccc(C)cc2)S(=O)(=O)c2ccccc2)cc1
IC50 (Beta-galactosidase): > 80 µM (inactive)

Cc1c(NS(=O)(=O)c2ccccc2)ccc([N+](=O)[O-])c1Cl
IC50 [3]: 3.86 µM (active)
EC50 [4]: > 53 µM (inactive)
IC50 [5]: 13.2 µM (active)

O=C1CC(N2CCN(c3ccc(O)cc3)CC2)C(=O)N1Cc1cccs1 (stereo not given)
EC50 [6]: 6.78 µM (active)
IC50 (Large T antigen): 5.41 µM (active)
EC50 [7]: 12 µM (active)
AC50 [8]: 0.123 µM (active)

COC(=O)C1=C(C)NC(=O)/C1=C\c1cccs1
IC50 (Protein Tat): > 100 µM (active)
IC50 [9]: > 100 µM (active)

COc1ccc(S(=O)(=O)Nc2ccc3c(c2)OCO3)cc1C
IC50 [9]: > 100 µM (active)

CN(C)S(=O)(=O)[n+]1ccn(C)c1.c1ccc([B-](c2ccccc2)(c2ccccc2)c2ccccc2)cc1
EC50 [6]: 2.68 µM (active)
EC50 [7]: 1.77 µM (active)
IC50 [10]: 15.7 µM (active)

Oc1nc2cc(/N=C/c3c(O)ccc4cc(Br)ccc34)ccc2[nH]1
IC50 [11]: > 50 µM (not active)
EC50 [12]: > 99 µM (inactive)
EC50 [13]: 5.48 µM (active)

O=C(Nc1cccc(F)c1)c1coc(=O)c(Br)c1
IC50 [3]: 9.89 µM (active)
EC50 [4]: > 53 µM (inactive)
IC50 [5]: 12.4 µM (active)

CCOC(=O)N1CCN(C(=O)COc2ccc3c(c2)C(=O)CC(C)(C)O3)CC1
EC50 (Kallikrein-7): > 69.5 µM (inactive)

Fc1ccc(/N=c2\ssnc2Cl)c(F)c1
IC50 [11]: 25.3 µM (active)
IC50 [10]: 38.5 µM (inactive)

O=C(Nc1ccc(NC(=O)c2ccccc2O)cc1)Nc1ccc(F)cc1F
EC50 (Kallikrein-7): 9.78 µM (active)

CCOC(=O)c1ccc(NC(=O)CSCc2ccco2)cc1
IC50 (Protein Tat): 81.6 µM (inconclusive)
IC50 [9]: > 73.7 µM (active)

CCOC(=O)N1CCN(C(=O)CSc2ccc(Cl)cc2)CC1
IC50 (Beta-galactosidase): > 80 µM (inactive)

COc1cc(C(=O)O[C@H]2CC(C)=CC[C@@]3(C)CC[C@@](O)(C(C)C)[C@H]23)ccc1O [TEFERIN]
AC50 [14]: 1.19 µM (active)
AC50 [15]: 35.6 µM (active)
AC50 [16]: 1.64 µM (active)
AC50 [17]: 2.35 µM (active)
AC50 [18]: 4.06 µM (active)

COc1ccc2c(C)nc(Nc3nc(C)c(C)c(O)n3)nc2c1
EC50 [19]: > 120 µM (not active)
CC50 [20]: 7.44 µM (active)
EC50 [21]: 5.4 µM (active)
EC50 [22]: 4.69 µM (active)
AC50 [23]: 6.84 µM (active)
AC50 [14]: 10.3 µM (active)
AC50 [15]: 7.32 µM (active)
AC50 [16]: 2.84 µM (active)
AC50 [18]: 8.79 µM (active)

O=S(=O)(c1ccc(-c2cn3ccccc3n2)cc1)N1CCOCC1
EC50 (Kallikrein-7): > 69.5 µM (inactive)

C#CCN(C[C@@H]1[C@@H](OC(=O)NC2CCCC2)[C@@H](OC(=O)NC2CCCC2)Cn2c(=O)ccc(=O)n21)S(=O)(=O)c1ccc(C)cc1
AC50 [24]: 12.9 µM (active)
AC50 [25]: 23.1 µM (active)
AC50 [26]: 14.4 µM (active)
IC50 [27]: 16.5 µM (inactive)
AC50 (Paired box protein Pax-8): 6.12 µM (active)
AC50 [28]: 3.87 µM (active)

CC(C)N(C)c1ncnc2c1ncn2[C@H]1CN(Cc2ccc(Cl)cc2)C[C@@H](CO)O1
IC50 (Beta-galactosidase): > 80 µM (inactive)
